The record followed here is patent US20110152313A1 (MACQUARIE UNIVERSITY, priority 2008, published 2011).

What all share (assay): kinase binding screen (kinase-tagged T7 phage, qPCR), % Ctrl
Test [1] addresses TYK2(JH2domain-pseudokinase) (Homo sapiens, UniProt P29597). As to the method:
(§1) Percentage kinase inhibition at a set concentration was performed by methods well known in the prior art (Fabian, M. A. et al. Nat. Biotechnol. 2005, 23, 329; Karaman et al. (2008) Nat. Biotechnol. […], 26, 127). Briefly, kinase-tagged T7 phage strains were grown in parallel in 24-well blocks in an E. coli host derived from the BL21 strain. E. coli were grown to log-phase and infected with T7 phage from a frozen stock (multiplicity of infection=0.4) and incubated with shaking at 32° C. until lysis (90-150 minutes). The lysates were centrifuged (6,000×g) and filtered (0.2 μm) to remove cell debris. […] The liganded beads were blocked with excess biotin and washed with blocking buffer (SeaBlock (Pierce); 1% BSA, 0.05% Tween 20, 1 mM DTT) to remove unbound ligand and to reduce non-specific phage binding. […] Test compounds were prepared as 40× stocks in 100% DMSO and directly diluted into the assay. All reactions were performed in polypropylene 384-well plates in a final volume of 0.04 mL. […] The kinase concentration in the eluates was measured by qPCR.

Test [2] addresses CAMKK1 (Homo sapiens, UniProt Q8N5S9). The protocol:
as §1

Test [3] addresses T1, GRK1 (Homo sapiens, UniProt Q15835).
T1 sequence (Q15835 1-563): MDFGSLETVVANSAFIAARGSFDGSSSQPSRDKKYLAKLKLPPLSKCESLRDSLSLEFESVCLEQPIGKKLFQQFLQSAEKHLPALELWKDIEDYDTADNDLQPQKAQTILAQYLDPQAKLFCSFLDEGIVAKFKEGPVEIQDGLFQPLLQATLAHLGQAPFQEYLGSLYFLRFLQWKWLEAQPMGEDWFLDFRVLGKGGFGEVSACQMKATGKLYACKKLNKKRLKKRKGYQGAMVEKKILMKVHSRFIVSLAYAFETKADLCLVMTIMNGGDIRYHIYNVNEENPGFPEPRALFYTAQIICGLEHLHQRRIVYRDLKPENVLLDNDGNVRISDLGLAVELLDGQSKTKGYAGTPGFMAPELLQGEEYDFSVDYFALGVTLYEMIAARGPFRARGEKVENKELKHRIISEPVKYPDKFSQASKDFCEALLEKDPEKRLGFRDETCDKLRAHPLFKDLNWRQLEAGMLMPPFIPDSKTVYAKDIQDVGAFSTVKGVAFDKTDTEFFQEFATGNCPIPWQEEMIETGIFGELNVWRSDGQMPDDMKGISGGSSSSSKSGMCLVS
The protocol: as §1

For test [4], the target named is PIM2 (Homo sapiens, UniProt Q9P1W9). As to the method:
as §1

Test [5] has as its target T2, ZAP70 (Homo sapiens, UniProt P43403).
T2 sequence (P43403 1-619): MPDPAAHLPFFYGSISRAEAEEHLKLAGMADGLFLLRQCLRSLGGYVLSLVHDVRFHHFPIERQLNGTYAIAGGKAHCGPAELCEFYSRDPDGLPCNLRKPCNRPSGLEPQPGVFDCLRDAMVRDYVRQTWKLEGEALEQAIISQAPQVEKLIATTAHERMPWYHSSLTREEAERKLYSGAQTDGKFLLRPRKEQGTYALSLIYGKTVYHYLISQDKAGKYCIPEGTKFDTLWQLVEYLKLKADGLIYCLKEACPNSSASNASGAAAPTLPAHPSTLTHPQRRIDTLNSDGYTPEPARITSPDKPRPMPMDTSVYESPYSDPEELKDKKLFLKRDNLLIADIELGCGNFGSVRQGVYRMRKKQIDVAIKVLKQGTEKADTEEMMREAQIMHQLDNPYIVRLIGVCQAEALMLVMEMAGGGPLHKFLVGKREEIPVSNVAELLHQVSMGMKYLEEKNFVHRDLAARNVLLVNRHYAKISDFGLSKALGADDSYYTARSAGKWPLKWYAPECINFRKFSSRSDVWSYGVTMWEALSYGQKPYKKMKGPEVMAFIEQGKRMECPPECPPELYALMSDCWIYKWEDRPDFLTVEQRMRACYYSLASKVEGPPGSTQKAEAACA
As to the method: as §1

The target in test [6] is T3, MAP3K2 (Homo sapiens, UniProt Q9Y2U5).
T3 sequence (Q9Y2U5 1-619): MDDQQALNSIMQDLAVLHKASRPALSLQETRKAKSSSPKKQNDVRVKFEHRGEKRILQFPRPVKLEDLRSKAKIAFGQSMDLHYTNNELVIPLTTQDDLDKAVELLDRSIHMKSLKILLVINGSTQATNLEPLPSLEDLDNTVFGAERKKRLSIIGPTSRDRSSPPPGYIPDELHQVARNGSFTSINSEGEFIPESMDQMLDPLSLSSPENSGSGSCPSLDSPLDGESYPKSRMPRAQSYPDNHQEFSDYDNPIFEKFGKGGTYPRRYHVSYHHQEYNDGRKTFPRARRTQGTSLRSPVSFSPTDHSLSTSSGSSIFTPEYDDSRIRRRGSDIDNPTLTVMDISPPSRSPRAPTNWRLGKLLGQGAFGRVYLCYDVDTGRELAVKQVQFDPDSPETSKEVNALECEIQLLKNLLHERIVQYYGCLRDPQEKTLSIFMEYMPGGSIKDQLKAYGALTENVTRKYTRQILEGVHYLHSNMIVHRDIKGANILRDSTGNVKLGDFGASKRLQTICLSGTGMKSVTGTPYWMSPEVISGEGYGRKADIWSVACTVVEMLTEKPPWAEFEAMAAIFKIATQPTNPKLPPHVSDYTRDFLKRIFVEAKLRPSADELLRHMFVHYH
As to the method: as §1

Test [7] deals with BMPR1B (Homo sapiens, UniProt O00238). As to the method: as §1
For test [8], the target named is CLK4 (Homo sapiens, UniProt Q9HAZ1). The protocol:
as §1

BMPR1B, sequence (O00238 14-502): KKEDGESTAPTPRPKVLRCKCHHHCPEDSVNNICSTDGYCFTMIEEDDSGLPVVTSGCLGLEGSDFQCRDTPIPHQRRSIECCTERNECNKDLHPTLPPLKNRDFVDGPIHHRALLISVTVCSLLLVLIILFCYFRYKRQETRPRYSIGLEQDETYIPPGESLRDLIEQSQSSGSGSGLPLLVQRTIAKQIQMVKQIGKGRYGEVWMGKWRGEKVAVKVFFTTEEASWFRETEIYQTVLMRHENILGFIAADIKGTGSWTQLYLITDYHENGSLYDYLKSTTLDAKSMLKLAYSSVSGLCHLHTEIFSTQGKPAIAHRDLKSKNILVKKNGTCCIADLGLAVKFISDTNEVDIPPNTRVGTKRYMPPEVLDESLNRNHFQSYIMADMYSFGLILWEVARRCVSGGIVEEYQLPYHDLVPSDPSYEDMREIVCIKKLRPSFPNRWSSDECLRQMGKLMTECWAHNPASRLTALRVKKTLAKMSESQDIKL
TYK2(JH2domain-pseudokinase), sequence (P29597 589-875 limits assumed, species assumed): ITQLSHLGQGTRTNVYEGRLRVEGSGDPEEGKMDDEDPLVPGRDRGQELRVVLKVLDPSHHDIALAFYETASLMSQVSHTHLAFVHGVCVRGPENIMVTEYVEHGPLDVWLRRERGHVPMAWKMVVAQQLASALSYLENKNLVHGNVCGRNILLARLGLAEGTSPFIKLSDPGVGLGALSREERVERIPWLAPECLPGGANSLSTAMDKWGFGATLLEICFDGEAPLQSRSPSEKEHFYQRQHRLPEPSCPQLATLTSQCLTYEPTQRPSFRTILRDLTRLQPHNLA
CAMKK1, sequence (Q8N5S9 whole entry): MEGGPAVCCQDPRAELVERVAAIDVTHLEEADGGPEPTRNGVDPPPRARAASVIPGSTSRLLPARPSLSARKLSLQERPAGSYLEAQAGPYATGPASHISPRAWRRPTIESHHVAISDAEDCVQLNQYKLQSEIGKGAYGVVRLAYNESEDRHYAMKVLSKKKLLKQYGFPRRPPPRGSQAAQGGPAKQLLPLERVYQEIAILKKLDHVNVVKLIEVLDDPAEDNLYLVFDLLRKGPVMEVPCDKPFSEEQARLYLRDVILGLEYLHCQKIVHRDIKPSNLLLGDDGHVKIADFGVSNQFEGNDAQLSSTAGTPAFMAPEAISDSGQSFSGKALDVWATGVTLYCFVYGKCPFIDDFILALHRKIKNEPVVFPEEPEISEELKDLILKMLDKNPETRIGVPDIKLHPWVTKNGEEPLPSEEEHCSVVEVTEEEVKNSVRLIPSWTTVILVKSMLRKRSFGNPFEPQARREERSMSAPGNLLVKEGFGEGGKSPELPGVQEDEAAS
PIM2, sequence (Q9P1W9 whole entry, species assumed): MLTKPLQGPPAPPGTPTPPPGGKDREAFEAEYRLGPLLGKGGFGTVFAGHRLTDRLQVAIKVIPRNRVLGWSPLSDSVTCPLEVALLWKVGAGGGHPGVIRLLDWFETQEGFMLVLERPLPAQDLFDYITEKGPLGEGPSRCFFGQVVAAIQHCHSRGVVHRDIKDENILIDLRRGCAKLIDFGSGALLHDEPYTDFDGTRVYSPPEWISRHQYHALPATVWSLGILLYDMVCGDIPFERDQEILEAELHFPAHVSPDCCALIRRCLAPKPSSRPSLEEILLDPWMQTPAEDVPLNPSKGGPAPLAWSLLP
CLK4, sequence (Q9HAZ1 whole entry, species assumed): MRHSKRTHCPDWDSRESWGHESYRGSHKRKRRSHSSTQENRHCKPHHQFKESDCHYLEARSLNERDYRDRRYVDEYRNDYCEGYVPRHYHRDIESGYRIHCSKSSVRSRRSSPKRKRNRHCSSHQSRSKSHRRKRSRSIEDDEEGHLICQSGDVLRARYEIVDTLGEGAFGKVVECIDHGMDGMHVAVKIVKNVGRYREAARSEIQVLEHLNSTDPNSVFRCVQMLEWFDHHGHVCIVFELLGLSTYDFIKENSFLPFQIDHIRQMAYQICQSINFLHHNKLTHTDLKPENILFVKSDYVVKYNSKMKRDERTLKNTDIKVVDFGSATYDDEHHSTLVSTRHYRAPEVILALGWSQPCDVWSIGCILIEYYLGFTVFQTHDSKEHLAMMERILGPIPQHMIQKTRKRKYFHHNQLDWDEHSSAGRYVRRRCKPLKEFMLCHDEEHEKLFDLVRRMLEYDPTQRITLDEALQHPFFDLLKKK

As usually defined, the remaining activity is the activity still measured, relative to the control. Low values mean a large loss of activity, high ones a small loss of activity. For the compound `Nc1nc2c(-c3ccccn3)nccc2[nH]1` [drawing 35, 4-(pyrid-2-yl)-1H-imidazo[4,5-c]pyridin-2-amine], the remaining activity at 1 µM in test [1] was 41%; in test [2] it was 19%; in test [3], 49%; in test [4], 100%; in test [5], 54%; in test [6], 54%. Also, the remaining activity at 1 µM in test [7] is 85%; in test [8] it was 60%.
For `Nc1nc2c(-c3cnc4ccccc4c3)nccc2[nH]1` [drawing 36, 4-(quinolin-3-yl)-1H-imidazo[4,5-c]pyridin-2-amine], the remaining activity at 1 µM in test [1] came out at 25%; in test [2] it was 100%; in test [3], 86%; in test [4], 100%; in test [5], 94%; in test [6] it was 81%. Also, the remaining activity at 1 µM in test [7] came to 0%; in test [8] it was 65%.
In the case of `Nc1nc2c(-c3cc(Br)c(Br)[nH]3)nccc2[nH]1` [Ageladine A, ageladine A, reference compound], the remaining activity at 1 µM was 23% in test [1]; 92% in test [2]; 80% in test [3]; 56% in test [4]; 81% in test [5]; 73% in test [6]. Besides, the remaining activity at 1 µM in test [7] turned out to be 100%; in test [8] it was 51%. The remaining activity at 10 µM amounted to 2% in test [1] (10 μM); 100% in test [2] (10 μM); 85% in test [3] (10 μM); 21% in test [4] (10 μM); 65% in test [5] (10 μM); 70% in test [6] (10 μM). For the same compound, the remaining activity at 10 µM in test [7] (10 μM) came to 78%; in test [8] (10 μM), 11%.
